Laboratory results from ChEMBL document CHEMBL4376886, “Design, Synthesis, and Evaluation of Novel Enterovirus 71 Inhibitors as Therapeutic Drug Leads for the Treatment of Human Hand, Foot, and Mouth Disease” (J Med Chem, 2020).

Key:
[1] = Apparent half-life of the terminal disposition phase in Sprague-Dawley rat at 5 mg/kg, po administered as single dose measured upto 24 hrs by LC-MS/MS analysis; format: ADME, organism-based; conditions: in vivo, read-out: t1/2 lambda z (converted)
[2] = Inhibition of capsid protein VP1 in Enterovirus 71 (FY)-Luc infected in human RD cells assessed as reduction in virus-induced cell death preincubated for 24 hrs followed by […] substrate addition and measured after 5 mins by chemiluminescence analysis; format: cell-based, Enterovirus A71; conditions: Enterovirus A
[3] = Cytotoxicity against human RD cells assessed as reduction in cell viability incubated for 24 hrs by MTT assay
[4] = Acute toxicity in juvenile zebrafish assessed as fatality rate at 200 uM after 24 hrs; conditions: in vivo
[5] = Acute toxicity in juvenile zebrafish assessed as fatality rate at 20 uM after 24 hrs; conditions: in vivo
[6] = Subacute toxicity in PND4 Sprague-Dawley rat assessed as animal survival at 30 to 50 mg/kg/day, po administered via gavage for 14 days and measured for 28 days; format: organism-based; conditions: in vivo
[7] = Subacute toxicity in PND4 Sprague-Dawley rat assessed as irreversible opaqueness of lens at 30 to 50 mg/kg/day, po administered via gavage for 14 days and measured for 28 days; format: organism-based; conditions: in vivo, 672 h
[8] = Subacute toxicity in PND14 Sprague-Dawley rat assessed as development of opaque lens at 100 mg/kg/day, po administered via gavage for 14 days and measured for 28 days; format: organism-based; conditions: in vivo, 672 h
[9] = Subacute toxicity in PND14 Sprague-Dawley rat assessed as quadriplegia at 100 mg/kg/day, po administered via gavage for 14 days and measured for 28 days; format: organism-based; conditions: in vivo, 672 h
[10] = Subacute toxicity in PND14 Sprague-Dawley rat assessed as hair loss at 100 mg/kg/day, po administered via gavage for 14 days and measured for 28 days; format: organism-based; conditions: in vivo, 672 h
[11] = Subacute toxicity in PND14 Sprague-Dawley rat assessed as lens fiber loosening and vacuolar degeneration at 100 mg/kg/day, po administered via gavage for 14 days and measured at day 28 by hematoxylin and eosin staining based histopathological analysis; format: organism-based; conditions: in vivo, 336 h
[12] = Subacute toxicity in PND21 Sprague-Dawley rat assessed as development of opaque lens at 100 mg/kg/day, po administered via gavage for 14 days and measured for 28 days; format: organism-based; conditions: in vivo, 672 h
[13] = Metabolic stability in Sprague-Dawley rat liver microsomes assessed as intrinsic clearance measured upto 300 mins in presence of NADP+ by HPLC analysis
[14] = Bioavailability in Sprague-Dawley rat at 5 mg/kg, ip administered as single dose measured upto 24 hrs by LC-MS/MS analysis; conditions: in vivo
[15] = AUC (0 to t) in Sprague-Dawley rat at 1 mg/kg, iv administered as single dose measured upto 24 hrs by LC-MS/MS analysis; format: ADME, organism-based; conditions: in vivo
[16] = AUC (0 to t) in Sprague-Dawley rat at 5 mg/kg, po administered as single dose measured upto 24 hrs by LC-MS/MS analysis; format: ADME, organism-based; conditions: in vivo
[17] = Apparent half-life of the terminal disposition phase in Sprague-Dawley rat at 1 mg/kg, iv administered as single dose measured upto 24 hrs by LC-MS/MS analysis; format: ADME, organism-based; conditions: in vivo, read-out: t1/2 lambda z (converted)
[18] = Tmax in Sprague-Dawley rat at 5 mg/kg, po administered as single dose measured upto 24 hrs by LC-MS/MS analysis; format: ADME, organism-based; conditions: in vivo
[19] = Apparent clearance during terminal phase in Sprague-Dawley rat at 1 mg/kg, iv administered as single dose measured upto 24 hrs by LC-MS/MS analysis; format: ADME, organism-based; conditions: in vivo
[20] = Apparent clearance during terminal phase in Sprague-Dawley rat at 5 mg/kg, po administered as single dose measured upto 24 hrs by LC-MS/MS analysis; format: ADME, organism-based; conditions: in vivo, read-out: CLz/F (converted)
[21] = Cmax in Sprague-Dawley rat at 1 mg/kg, iv administered as single dose measured upto 24 hrs by LC-MS/MS analysis; format: ADME, organism-based; design: dose 1 mg/kg, route intravenous; conditions: in vivo
[22] = Cmax in Sprague-Dawley rat at 5 mg/kg, po administered as single dose measured upto 24 hrs by LC-MS/MS analysis; format: ADME, organism-based; design: dose 5 mg/kg, route oral; conditions: in vivo
[23] = Oral bioavailability in Sprague-Dawley rat at 5 mg/kg administered as single dose measured upto 24 hrs by LC-MS/MS analysis; format: ADME, organism-based; conditions: in vivo
Enterovirus A71 = assay: Antiviral activity against Enterovirus 71 genotype C4 infected in BALB/c mouse assessed as protection rate at 10 mg/kg/day, ip qd for 7 days administration starting from 48 hrs post-infection and measured for 14 days; format: functional
[24] = Acute toxicity in juvenile zebrafish assessed as fatality rate at 50 uM after 24 hrs; conditions: in vivo
[25] = Acute toxicity in juvenile zebrafish assessed as fatality rate at 100 uM after 24 hrs; conditions: in vivo
[26] = Acute toxicity in juvenile zebrafish assessed as fatality rate at 20 uM after 48 hrs; conditions: in vivo
[27] = Acute toxicity in juvenile zebrafish assessed as fatality rate at 50 uM after 48 hrs; conditions: in vivo
[28] = Acute toxicity in juvenile zebrafish assessed as fatality rate at 100 uM after 48 hrs; conditions: in vivo
[29] = Acute toxicity in juvenile zebrafish assessed as fatality rate at 200 uM after 48 hrs; conditions: in vivo
[30] = Subacute toxicity in PND7 Sprague-Dawley rat assessed as animal survival at 30 to 50 mg/kg/day, po administered via gavage for 14 days and measured for 28 days; format: organism-based; conditions: in vivo
[31] = Subacute toxicity in PND7 Sprague-Dawley rat assessed as irreversible opaqueness of lens at 30 to 50 mg/kg/day, po administered via gavage for 14 days and measured for 28 days; format: organism-based; conditions: in vivo, 672 h
[32] = Subacute toxicity in PND21 Sprague-Dawley rat assessed as quadriplegia at 100 mg/kg/day, po administered via gavage for 14 days and measured for 28 days; format: organism-based; conditions: in vivo, 672 h
[33] = Subacute toxicity in PND21 Sprague-Dawley rat assessed as hair loss at 100 mg/kg/day, po administered via gavage for 14 days and measured for 28 days; format: organism-based; conditions: in vivo, 672 h
[34] = rat, in vivo, ip, 5 mg/kg, 24 h
Description: AUC (0 to t) in Sprague-Dawley rat at 5 mg/kg, ip administered as single dose measured upto 24 hrs by LC-MS/MS analysis

in vivo [35] = conditions: Sprague-Dawley, rat, ip, 5 mg/kg
Description: Apparent half-life of the terminal disposition phase in Sprague-Dawley rat at 5 mg/kg, ip administered as single dose measured upto 24 hrs by LC-MS/MS analysis

in vivo [36] = conditions: Sprague-Dawley, rat, ip, 5 mg/kg; remark: listed apart in the source
Description: Tmax in Sprague-Dawley rat at 5 mg/kg, ip administered as single dose measured upto 24 hrs by LC-MS/MS analysis

in vivo [37] = conditions: Sprague-Dawley, rat, ip, 5 mg/kg; remark: listed apart in the source
Description: Apparent clearance during terminal phase in Sprague-Dawley rat at 5 mg/kg, ip administered as single dose measured upto 24 hrs by LC-MS/MS analysis

in vivo [38] = conditions: Sprague-Dawley, rat, ip, 5 mg/kg; remark: listed apart in the source
Description: Cmax in Sprague-Dawley rat at 5 mg/kg, ip administered as single dose measured upto 24 hrs by LC-MS/MS analysis

in vivo [39] = conditions: zebrafish
Description: Acute toxicity in juvenile zebrafish assessed as fatality rate at 150 uM after 24 hrs

in vivo [40] = conditions: zebrafish; remark: listed apart in the source
Description: Acute toxicity in juvenile zebrafish assessed as fatality rate at 150 uM after 48 hrs

[41] = Acute toxicity in juvenile zebrafish assessed as pericarditis at 100 uM after 24 hrs; design: species or system Danio rerio; conditions: in vivo

CCO/N=C/c1ccc(OCCC(C)CCN2CCN(c3ccnc(N)c3)C2=O)cc1 (configuration not stated)
half-life [1]: 2.99 h
EC50 [2]: 0.025 nM
CC50 at 24 h ([3]; rd): 29400 nM
mortality at 24 h, 200 µM [4]: 100%
mortality at 24 h, 20 µM [5]: 100%
survival at 672 h [6]: 100%
Activity [7]: Toxic
Activity [8]: Toxic
Activity [9]: Toxic
Activity [10]: Toxic
Activity [11]: Toxic
Activity [12]: Toxic
microsomal CLint at 5 h [13]: 38.9 µL/min/mg
bioavailability at 24 h [14]: 85%
AUCt [15]: 60.8 ng·h/mL
AUCt [16]: 222 ng·h/mL
half-life [17]: 0.5 h
Tmax [18]: 1 h
CLz/F [19]: 13.2 mL/min/kg
CL/F [20]: 1600 mL/min/kg
Cmax [21]: 23.3 ng/mL
Cmax [22]: 81.8 ng/mL
bioavailability [23]: 73.3%
Activity (Enterovirus A71): 100%
mortality at 24 h, 50 µM [24]: 100%
mortality at 24 h, 100 µM [25]: 100%
mortality at 48 h, 20 µM [26]: 100%
mortality at 48 h, 50 µM [27]: 100%
mortality at 48 h, 100 µM [28]: 100%
mortality at 48 h, 200 µM [29]: 100%
survival at 672 h [30]: 100%
Activity [31]: Toxic
Activity [32]: Toxic
Activity [33]: Toxic
AUCt [34]: 258 ng·h/mL
half-life at 24 h (in vivo [35]): 2.64 h
Tmax at 24 h (in vivo [36]): 0.5 h
CL/F at 24 h (in vivo [37]): 381 mL/min/kg
Cmax at 24 h (in vivo [38]): 149 ng/mL
mortality at 24 h, 150 µM (in vivo [39]): 100%
mortality at 48 h, 150 µM (in vivo [40]): 100%

CC(CCOc1ccc(-c2noc(C(C)(C)C)n2)cc1)CCN1CCN(c2ccnc(N)c2)C1=O (configuration not stated)
EC50 [2]: 0.0092 nM
CC50 at 24 h ([3]; RD cells): 55000 nM
mortality at 24 h, 200 µM [4]: 100%
mortality at 24 h, 20 µM [5]: 0%
Activity [41]: Toxic
mortality at 24 h, 50 µM [24]: 0%
mortality at 24 h, 100 µM [25]: 80%
mortality at 48 h, 20 µM [26]: 0%
mortality at 48 h, 50 µM [27]: 0%
mortality at 48 h, 100 µM [28]: 100%
mortality at 48 h, 200 µM [29]: 100%
mortality at 24 h, 150 µM (in vivo [39]): 100%
mortality at 48 h, 150 µM (in vivo [40]): 100%

CCO/N=C/c1ccc(OCCCCCN2CCN(c3ccnc(N)c3)C2=O)cc1
EC50 [2]: 0.072 nM
CC50 at 24 h ([3]; RD cells): 59000 nM
mortality at 24 h, 200 µM [4]: 100%
mortality at 24 h, 20 µM [5]: 20%
mortality at 24 h, 50 µM [24]: 0%
mortality at 24 h, 100 µM [25]: 100%
mortality at 48 h, 20 µM [26]: 20%
mortality at 48 h, 50 µM [27]: 100%
mortality at 48 h, 100 µM [28]: 100%
mortality at 48 h, 200 µM [29]: 100%
mortality at 24 h, 150 µM (in vivo [39]): 100%
mortality at 48 h, 150 µM (in vivo [40]): 100%

CC(CCOc1ccc(-c2noc(C(F)(F)F)n2)cc1)CCN1CCN(c2ccnc(N)c2)C1=O (configuration not stated)
EC50 [2]: 0.537 nM
CC50 at 24 h ([3]; RD cells): 48100 nM
mortality at 24 h, 200 µM [4]: 100%
mortality at 24 h, 20 µM [5]: 0%
mortality at 24 h, 50 µM [24]: 30%
mortality at 24 h, 100 µM [25]: 70%
mortality at 48 h, 20 µM [26]: 0%
mortality at 48 h, 50 µM [27]: 50%
mortality at 48 h, 100 µM [28]: 100%
mortality at 48 h, 200 µM [29]: 100%
mortality at 24 h, 150 µM (in vivo [39]): 80%
mortality at 48 h, 150 µM (in vivo [40]): 100%

CCCc1nc(-c2ccc(OCCC(C)CCN3CCN(c4ccnc(N)c4)C3=O)cc2)no1 (configuration not stated)
EC50 [2]: 0.15 nM
CC50 at 24 h ([3]; RD cells): > 100000 nM
mortality at 24 h, 200 µM [4]: 100%
mortality at 24 h, 20 µM [5]: 40%
mortality at 24 h, 50 µM [24]: 100%
mortality at 24 h, 100 µM [25]: 100%
mortality at 48 h, 20 µM [26]: 60%
mortality at 48 h, 50 µM [27]: 100%
mortality at 48 h, 100 µM [28]: 100%
mortality at 48 h, 200 µM [29]: 100%
mortality at 24 h, 150 µM (in vivo [39]): 100%
mortality at 48 h, 150 µM (in vivo [40]): 100%

CCc1nc(-c2ccc(OCCC(C)CCN3CCN(c4ccnc(N)c4)C3=O)cc2)no1 (configuration not stated)
EC50 [2]: 0.0084 nM
CC50 at 24 h ([3]; RD cells): > 100000 nM
mortality at 24 h, 200 µM [4]: 100%
mortality at 24 h, 20 µM [5]: 40%
mortality at 24 h, 50 µM [24]: 10%
mortality at 24 h, 100 µM [25]: 30%
mortality at 48 h, 20 µM [26]: 60%
mortality at 48 h, 50 µM [27]: 100%
mortality at 48 h, 100 µM [28]: 100%
mortality at 48 h, 200 µM [29]: 100%
mortality at 24 h, 150 µM (in vivo [39]): 80%
mortality at 48 h, 150 µM (in vivo [40]): 100%
